12 molecules from patent publication US20260092071A1, “COMPOUNDS AND COMPOSITIONS AS SMARCA2/4 DEGRADERS AND USES THEREOF” (REGENTS OF THE UNIVERSITY OF MICHIGAN, priority 2022, published 2026) can be followed below.

Some results are limits rather than exact numbers.

For assay [1], the target named is SMARCA2 (Homo sapiens, UniProt P51531). As to the kind of experiment: HiBit assay in engineered HT1080 CRISPR knock-in cell, 6 hrs (B series), SMARCA2. As to conditions: 6 hrs incubation; for DC50: read-out: SMARC A2 HT1080 HiBit DC50; for Dmax: HT-1080, HT1080 CRISPR knock-in cells, read-out: SMARC A2 HT1080 HiBit Dmax (%). The class given is cell-based. An outline of the steps: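 HT1080 CRISPR knock-in cells carrying the HiBiT tag were seeded onto compounds (final DMSO 0.1%) and incubated 6 hrs at 37° C, 5% CO2. Remaining tagged protein was detected by lytic HiBiT luminescence after adding LgBiT protein and substrate, with LgBiT-free wells serving as negative control.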
(With HiBiT, luminescence reflects the tagged protein that the partner subunit can reach.)

Assay [2] addresses SMARCA4 (Homo sapiens, UniProt P51532). Description: HiBit assay in engineered HT1080 CRISPR knock-in cell, 6 hrs (B series), SMARCA4. As to conditions: 6 hrs incubation; for DC50: read-out: SMARC A4 HT1080 HiBit DC50; for Dmax: HT-1080, HT1080 CRISPR knock-in cells, read-out: SMARC A4 HT1080 HiBit Dmax(%). The assay is classed as cell-based. The method in brief:
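Using a 6 hr treatment window at 37° C and 5% CO2, tagged HT1080 knock-in cells were exposed to test compounds with DMSO vehicle held at 0.1%. Signal came from lytic LgBiT/substrate reagent added after incubation, with control wells lacking LgBiT, and was read as luminescence.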

SMARCA4, sequence (P51532 whole entry): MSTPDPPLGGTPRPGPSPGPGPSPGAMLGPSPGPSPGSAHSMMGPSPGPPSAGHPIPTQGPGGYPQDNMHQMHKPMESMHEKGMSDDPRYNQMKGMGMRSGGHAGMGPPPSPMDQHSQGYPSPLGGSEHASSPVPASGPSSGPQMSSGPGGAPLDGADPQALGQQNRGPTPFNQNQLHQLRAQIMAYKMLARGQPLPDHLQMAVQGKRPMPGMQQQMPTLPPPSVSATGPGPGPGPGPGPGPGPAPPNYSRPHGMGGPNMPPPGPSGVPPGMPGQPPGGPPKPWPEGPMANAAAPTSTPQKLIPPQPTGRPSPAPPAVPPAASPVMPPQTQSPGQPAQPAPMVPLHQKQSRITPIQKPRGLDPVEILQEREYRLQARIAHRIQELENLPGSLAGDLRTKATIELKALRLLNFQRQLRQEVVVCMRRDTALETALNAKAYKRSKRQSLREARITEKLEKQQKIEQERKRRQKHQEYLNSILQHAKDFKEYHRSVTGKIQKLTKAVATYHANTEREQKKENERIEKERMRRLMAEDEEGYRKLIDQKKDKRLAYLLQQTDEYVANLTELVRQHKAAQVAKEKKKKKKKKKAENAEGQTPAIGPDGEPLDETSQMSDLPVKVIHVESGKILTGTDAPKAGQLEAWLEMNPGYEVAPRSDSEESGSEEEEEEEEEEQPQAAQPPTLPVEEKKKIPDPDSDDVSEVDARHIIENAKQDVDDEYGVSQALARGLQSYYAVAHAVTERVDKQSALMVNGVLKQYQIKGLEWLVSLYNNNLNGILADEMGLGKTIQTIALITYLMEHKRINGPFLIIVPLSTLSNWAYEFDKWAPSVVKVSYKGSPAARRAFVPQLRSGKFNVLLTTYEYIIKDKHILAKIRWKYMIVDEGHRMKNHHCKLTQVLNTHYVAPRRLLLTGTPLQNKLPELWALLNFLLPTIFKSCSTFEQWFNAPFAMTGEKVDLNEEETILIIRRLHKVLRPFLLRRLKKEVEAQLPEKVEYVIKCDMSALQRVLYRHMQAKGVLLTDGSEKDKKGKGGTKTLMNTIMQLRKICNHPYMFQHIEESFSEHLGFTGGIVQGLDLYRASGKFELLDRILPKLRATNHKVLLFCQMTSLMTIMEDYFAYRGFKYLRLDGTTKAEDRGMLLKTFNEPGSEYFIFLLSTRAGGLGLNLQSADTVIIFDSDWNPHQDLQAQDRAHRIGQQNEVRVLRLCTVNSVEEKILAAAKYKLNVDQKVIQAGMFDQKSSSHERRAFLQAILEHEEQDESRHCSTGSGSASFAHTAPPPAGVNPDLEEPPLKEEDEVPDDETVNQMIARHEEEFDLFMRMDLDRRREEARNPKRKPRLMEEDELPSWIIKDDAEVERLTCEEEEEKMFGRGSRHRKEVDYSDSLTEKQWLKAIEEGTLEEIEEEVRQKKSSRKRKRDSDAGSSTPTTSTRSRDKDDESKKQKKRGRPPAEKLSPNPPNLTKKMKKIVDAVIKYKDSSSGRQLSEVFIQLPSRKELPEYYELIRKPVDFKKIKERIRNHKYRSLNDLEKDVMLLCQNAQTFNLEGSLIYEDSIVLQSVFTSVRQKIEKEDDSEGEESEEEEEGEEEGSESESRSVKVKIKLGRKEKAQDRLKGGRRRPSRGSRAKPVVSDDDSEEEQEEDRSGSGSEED
SMARCA2, sequence (P51531 whole entry): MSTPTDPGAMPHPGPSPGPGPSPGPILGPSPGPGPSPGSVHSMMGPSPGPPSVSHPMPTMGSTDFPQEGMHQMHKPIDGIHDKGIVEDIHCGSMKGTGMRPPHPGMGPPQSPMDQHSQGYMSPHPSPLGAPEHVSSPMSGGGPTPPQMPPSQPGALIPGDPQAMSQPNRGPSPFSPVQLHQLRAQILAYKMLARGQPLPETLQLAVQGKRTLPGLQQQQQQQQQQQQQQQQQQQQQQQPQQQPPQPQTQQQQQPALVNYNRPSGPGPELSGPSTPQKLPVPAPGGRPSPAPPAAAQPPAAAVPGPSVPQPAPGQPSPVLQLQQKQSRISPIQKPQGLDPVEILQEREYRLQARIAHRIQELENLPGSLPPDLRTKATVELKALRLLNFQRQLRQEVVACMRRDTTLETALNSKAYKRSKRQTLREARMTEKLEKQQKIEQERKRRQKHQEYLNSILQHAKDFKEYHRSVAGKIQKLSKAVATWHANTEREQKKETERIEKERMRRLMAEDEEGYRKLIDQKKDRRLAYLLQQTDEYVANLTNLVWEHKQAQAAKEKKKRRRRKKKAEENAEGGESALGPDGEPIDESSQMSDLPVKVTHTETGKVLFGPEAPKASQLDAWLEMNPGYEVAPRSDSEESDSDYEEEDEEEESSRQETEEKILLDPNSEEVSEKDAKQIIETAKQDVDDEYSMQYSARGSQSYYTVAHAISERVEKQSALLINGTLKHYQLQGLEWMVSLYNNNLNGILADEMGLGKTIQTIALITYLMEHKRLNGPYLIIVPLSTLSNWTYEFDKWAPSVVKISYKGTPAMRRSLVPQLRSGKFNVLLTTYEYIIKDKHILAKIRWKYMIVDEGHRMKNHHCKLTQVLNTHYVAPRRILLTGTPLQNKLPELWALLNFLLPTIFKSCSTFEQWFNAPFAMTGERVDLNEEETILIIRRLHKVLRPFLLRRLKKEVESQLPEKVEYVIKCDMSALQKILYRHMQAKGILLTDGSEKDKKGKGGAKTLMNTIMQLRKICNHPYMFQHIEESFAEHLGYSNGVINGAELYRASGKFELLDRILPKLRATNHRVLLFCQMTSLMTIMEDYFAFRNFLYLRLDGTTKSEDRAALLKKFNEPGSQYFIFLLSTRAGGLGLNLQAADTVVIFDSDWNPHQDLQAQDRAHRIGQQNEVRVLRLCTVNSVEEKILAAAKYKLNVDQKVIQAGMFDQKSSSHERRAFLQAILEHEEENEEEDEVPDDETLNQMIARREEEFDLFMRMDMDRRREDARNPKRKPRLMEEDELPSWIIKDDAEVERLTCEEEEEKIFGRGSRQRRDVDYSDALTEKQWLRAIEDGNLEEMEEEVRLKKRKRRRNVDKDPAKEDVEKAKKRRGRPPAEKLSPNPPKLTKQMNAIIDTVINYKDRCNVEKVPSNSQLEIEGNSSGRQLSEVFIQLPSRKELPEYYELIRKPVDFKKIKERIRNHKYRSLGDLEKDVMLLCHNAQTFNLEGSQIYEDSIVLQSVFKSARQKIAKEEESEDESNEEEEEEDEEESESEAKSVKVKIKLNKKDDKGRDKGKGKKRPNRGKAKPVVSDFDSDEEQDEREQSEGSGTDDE

`Cc1ncsc1-c1ccc([C@H](CCCCCN2CCC(c3ccc4c(c3)-n3c(nc(=O)c5c(Cl)cccc53)C4(C)C)CC2)NC(=O)[C@@H]2C[C@@H](O)CN2C(=O)[C@@H](NC(=O)C2(F)CC2)C(C)(C)C)cc1` [Compound B21, (2S,4R)-N-((S)-6-(4-(4-chloro-7,7-dimethyl-5-oxo-5,7-dihydroindolo[1,2-a]quinazolin-10-yl)piperidin-1-yl)-1-(4-(4-methylthiazol-5-yl)phenyl)hexyl)-1-((S)-2-(1-fluorocyclopropane-1-carboxamido)-3,3-dimethylbutanoyl)-4-hydroxypyrrolidine-2-carboxamide]: the DC50 in assay [1] (HT1080 CRISPR knock-in cells) and in assay [2] (HT1080 CRISPR knock-in cells) was less than 0.1 µM throughout. Besides, the Dmax in assay [1] and in assay [2] was greater than 90% throughout.

As for `Cc1ncsc1-c1ccc([C@H](C)NC(=O)[C@@H]2C[C@@H](O)CN2C(=O)[C@@H](c2cc(OCCCCN3CCC(c4ccc5c(c4)C(C)(C)c4nc(=O)c6c(Cl)cccc6n4-5)CC3)no2)C(C)C)cc1` [Compound B12, (2S,4R)-1-((R)-2-(3-(4-(4-(4-chloro-7,7-dimethyl-5-oxo-5,7-dihydroindolo[1,2-a]quinazolin-9-yl)piperidin-1-yl)butoxy)isoxazol-5-yl)-3-methylbutanoyl)-4-hydroxy-N-((S)-1-(4-(4-methylthiazol-5-yl)phenyl)ethyl)pyrrolidine-2-carboxamide], the DC50 in assay [1] (HT1080 CRISPR knock-in cells) and in assay [2] (HT1080 CRISPR knock-in cells) was less than 0.1 µM in each case. Further, the Dmax in assay [1] and in assay [2] was greater than 90% throughout.

On to `Cc1cc(C(C(=O)N2C[C@H](O)C[C@H]2C(=O)N[C@@H](CCN2CCC(c3cccc4c3C(C)(C)c3nc(=O)c5c(Cl)cccc5n3-4)CC2)c2ccc(-c3scnc3C)cc2)C(C)C)on1` (stereo partly drawn) [Compound B166, (2S,4R)-N-((S)-3-(4-(4-chloro-7,7-dimethyl-5-oxo-5,7-dihydroindolo[1,2-a]quinazolin-8-yl)piperidin-1-yl)-1-(4-(4-methylthiazol-5-yl)phenyl)propyl)-4-hydroxy-1-(3-methyl-2-(3-methylisoxazol-5-yl)butanoyl)pyrrolidine-2-carboxamide], for which, in assay [1] (HT1080 CRISPR knock-in cells), the “SMARC A2 HT1080 HiBit Dmax (%)” value is given as “B (B (70-90% degradation))” and the DC50 fell in the range of 0.1 to 0.5 µM. In addition, in assay [2] (HT1080 CRISPR knock-in cells), the “SMARC A4 HT1080 HiBit Dmax(%)” value is listed as “B (B (70-90% degradation))” and the DC50 was 0.1 to 0.5 µM.

For the molecule `Cc1ncsc1-c1ccc([C@H](CN2CCOCC2)NC(=O)[C@@H]2C[C@@H](O)CN2C(=O)[C@@H](c2cc(N3CCC(c4ccc5c(c4)C(C)(C)c4nc(=O)c6c(Cl)cccc6n4-5)CC3)no2)C(C)C)cc1` [Compound B110, (2S,4R)-1-(2-(3-(4-(4-chloro-7,7-dimethyl-5-oxo-5,7-dihydroindolo[1,2-a]quinazolin-9-yl)piperidin-1-yl)isoxazol-5-yl)-3-methylbutanoyl)-4-hydroxy-N—((R)-1-(4-(4-methylthiazol-5-yl)phenyl)-2-morpholinoethyl)pyrrolidine-2-carboxamide], the DC50 in assay [1] (HT1080 CRISPR knock-in cells) and in assay [2] (HT1080 CRISPR knock-in cells) was less than 0.1 µM throughout. Further, the Dmax in assay [1] is greater than 90%; in assay [2] it was 70 to 90%.

In the case of `Cc1ncsc1-c1ccc([C@H](C)NC(=O)[C@@H]2C[C@@H](O)CN2C(=O)[C@H](C(C)C)n2cc(CCCN3CCC(c4ccc5c(c4)-n4c(nc(=O)c6c(Cl)cccc64)C5(C)C)CC3)nn2)cc1` [Compound B58, (2S,4R)-1-((S)-2-(4-(3-(4-(4-chloro-7,7-dimethyl-5-oxo-5,7-dihydroindolo[1,2-a]quinazolin-10-yl)piperidin-1-yl)propyl)-1H-1,2,3-triazol-1-yl)-3-methylbutanoyl)-4-hydroxy-N-((S)-1-(4-(4-methylthiazol-5-yl)phenyl)ethyl)pyrrolidine-2-carboxamide], the DC50 in assay [1] (HT1080 CRISPR knock-in cells) and in assay [2] (HT1080 CRISPR knock-in cells) was less than 0.1 µM throughout. Besides, the Dmax was greater than 90% in assay [1] and 70 to 90% in assay [2].

Regarding `Cc1ncsc1-c1ccc([C@H](C)NC(=O)[C@@H]2C[C@@H](O)CN2C(=O)[C@@H](n2cc([C@H]3CC[C@H](CN4CCN(c5ccc6c(c5)-n5c(nc(=O)c7c(Cl)cccc75)C6(C)C)CC4)CC3)nn2)C(C)(C)C)cc1` [Compound B121, (2S,4R)-1-((S)-2-(4-((1r,4S)-4-((4-(4-chloro-7,7-dimethyl-5-oxo-5,7-dihydroindolo[1,2-a]quinazolin-10-yl)piperazin-1-yl)methyl)cyclohexyl)-1H-1,2,3-triazol-1-yl)-3,3-dimethylbutanoyl)-4-hydroxy-N-((S)-1-(4-(4-methylthiazol-5-yl)phenyl)ethyl)pyrrolidine-2-carboxamide], the DC50 in assay [1] (HT1080 CRISPR knock-in cells) and in assay [2] (HT1080 CRISPR knock-in cells) was less than 0.1 µM throughout. The Dmax was greater than 90% in assay [1] and 70 to 90% in assay [2].

As for `Cc1ncsc1-c1ccc([C@H](C)NC(=O)[C@@H]2C[C@@H](O)CN2C(=O)[C@@H](n2cc([C@H](C)N3CCC(c4ccc5c(c4)-n4c(nc(=O)c6c(Cl)cccc64)C5(C)C)CC3)nn2)C(C)(C)C)cc1` [Compound B68, (2S,4R)-1-((S)-2-(4-((S)-1-(4-(4-chloro-7,7-dimethyl-5-oxo-5,7-dihydroindolo[1,2-a]quinazolin-10-yl)piperidin-1-yl)ethyl)-1H-1,2,3-triazol-1-yl)-3,3-dimethylbutanoyl)-4-hydroxy-N-((S)-1-(4-(4-methylthiazol-5-yl)phenyl)ethyl)pyrrolidine-2-carboxamide], the DC50 is less than 0.1 µM in assay [1] (HT1080 CRISPR knock-in cells) and 0.501 to 1 µM in assay [2] (HT1080 CRISPR knock-in cells). Further, the Dmax was greater than 90% in assay [1] and less than 50% in assay [2].

For `Cc1ncsc1-c1ccc([C@H](C)NC(=O)[C@@H]2C[C@@H](O)CN2C(=O)[C@@H](c2cc(OCCCCn3cc(-c4ccc5c(c4)-n4c(nc(=O)c6c(Cl)cccc64)C5(C)C)cn3)no2)C(C)C)cc1` [Compound B97, (2S,4R)-1-((R)-2-(3-(4-(4-(4-chloro-7,7-dimethyl-5-oxo-5,7-dihydroindolo[1,2-a]quinazolin-10-yl)-1H-pyrazol-1-yl)butoxy)isoxazol-5-yl)-3-methylbutanoyl)-4-hydroxy-N-((S)-1-(4-(4-methylthiazol-5-yl)phenyl)ethyl)pyrrolidine-2-carboxamide], the DC50 in assay [1] (HT1080 CRISPR knock-in cells) and in assay [2] (HT1080 CRISPR knock-in cells) was 0.1 to 0.5 µM each time. Also, the figures for the Dmax in assay [1] and in assay [2] were 50 to 69% and less than 50%, respectively.

On to `Cc1ncsc1-c1ccc([C@H](C)NC(=O)[C@@H]2C[C@@H](O)CN2C(=O)[C@@H](c2cc(OC3CCC(CN4CCC(c5ccc6c(c5)C(C)(C)c5nc(=O)c7c(Cl)cccc7n5-6)CC4)CC3)no2)C(C)C)cc1` (stereo partly drawn) [Compound B30, (2S,4R)-1-((R)-2-(3-((4-((4-(4-chloro-7,7-dimethyl-5-oxo-5,7-dihydroindolo[1,2-a]quinazolin-9-yl)piperidin-1-yl)methyl)cyclohexyl)oxy)isoxazol-5-yl)-3-methylbutanoyl)-4-hydroxy-N-((S)-1-(4-(4-methylthiazol-5-yl)phenyl)ethyl)pyrrolidine-2-carboxamide], for which the DC50 in assay [1] (HT1080 CRISPR knock-in cells) and in assay [2] (HT1080 CRISPR knock-in cells) was less than 0.1 µM each time. Besides, the Dmax in assay [1] and in assay [2] was greater than 90% throughout.

On to `Cc1ncsc1-c1ccc([C@H](C)NC(=O)[C@@H]2C[C@@H](O)CN2C(=O)[C@@H](NC(=O)[C@H]2CC[C@H](CN3CCC(c4ccc5c(c4)-n4c(nc(=O)c6c(Cl)cccc64)C5(C)C)CC3)CC2)C(C)(C)C)cc1` [Compound B40, (2S,4R)-1-((S)-2-((1r,4S)-4-((4-(4-chloro-7,7-dimethyl-5-oxo-5,7-dihydroindolo[1,2-a]quinazolin-10-yl)piperidin-1-yl)methyl)cyclohexane-1-carboxamido)-3,3-dimethylbutanoyl)-4-hydroxy-N-((S)-1-(4-(4-methylthiazol-5-yl)phenyl)ethyl)pyrrolidine-2-carboxamide], for which the DC50 is less than 0.1 µM in assay [1] (HT1080 CRISPR knock-in cells) and 0.1 to 0.5 µM in assay [2] (HT1080 CRISPR knock-in cells). For the same molecule, the Dmax in assay [1] is greater than 90%; in assay [2], less than 50%.

Turning to `Cc1ncsc1-c1ccc([C@H](C)NC(=O)[C@@H]2C[C@@H](O)CN2C(=O)[C@@H](n2cc(C3CC4(C3)CC(N3CCC(c5ccc6c(c5)-n5c(nc(=O)c7c(Cl)cccc75)C6(C)C)CC3)C4)nn2)C(C)(C)C)cc1` (stereo partly drawn) [Compound B86, (2S,4R)-1-((S)-2-(4-(6-(4-(4-chloro-7,7-dimethyl-5-oxo-5,7-dihydroindolo[1,2-a]quinazolin-10-yl)piperidin-1-yl)spiro[3.3]heptan-2-yl)-1H-1,2,3-triazol-1-yl)-3,3-dimethylbutanoyl)-4-hydroxy-N—((S)-1-(4-(4-methylthiazol-5-yl)phenyl)ethyl)pyrrolidine-2-carboxamide], the DC50 in assay [1] (HT1080 CRISPR knock-in cells) and in assay [2] (HT1080 CRISPR knock-in cells) was less than 0.1 µM each time. For the same molecule, the Dmax was greater than 90% in assay [1] and 70 to 90% in assay [2].

Turning to `Cc1ncsc1-c1ccc([C@H](C)NC(=O)[C@@H]2C[C@@H](O)CN2C(=O)[C@H](C(C)C)n2cc(C3CCC(N4CCC(c5cccc6c5C(C)(C)c5nc(=O)c7c(Cl)cccc7n5-6)CC4)CC3)nn2)cc1` (stereo partly drawn) [Compound B114, (2S,4R)-1-((S)-2-(4-(4-(4-(4-chloro-7,7-dimethyl-5-oxo-5,7-dihydroindolo[1,2-a]quinazolin-8-yl)piperidin-1-yl)cyclohexyl)-1H-1,2,3-triazol-1-yl)-3-methylbutanoyl)-4-hydroxy-N-((S)-1-(4-(4-methylthiazol-5-yl)phenyl)ethyl)pyrrolidine-2-carboxamide], the DC50 in assay [1] (HT1080 CRISPR knock-in cells) was less than 0.1 µM; in assay [2] (HT1080 CRISPR knock-in cells), 0.1 to 0.5 µM. The Dmax in assay [1] is 70 to 90%; in assay [2], less than 50%.
